ChEMBL document CHEMBL1201862, “PubChem BioAssay data set” (2004)
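Dose response: 5 concentrations. Exposure: 48 h. Format: 96-well plates. Endpoint: linear interpolation; highest concentration if not reached. GI50 is the concentration that inhibits growth by half.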 Active and inactive are the calls of the source. No stated cut-off is given here; in the data, active = GI50 up to about 1.1 µM and inactive = higher. Non-standard residues stand in square brackets, D forms with d. Residues, ends and D or L forms follow the SMILES beside them. ξ: configuration not given here. *: point of attachment. ξF = NC(Cc1ccccc1)C(=O)O; Cbz = O=C(OCc1ccccc1)*; Aib = CC(C)(N)C(=O)O

Tests used:
Experiment in all cases: inhibition of tumour cell growth, NCI panel, 48 h
[1] = test system: K562
[2] = test system: HOP-92
[3] = test system: COLO 205
[4] = test system: LOX IMVI
[5] = test system: UO-31
[6] = test system: SR
[7] = test system: NCI/ADR-RES
[8] = test system: SF-268
[9] = test system: SNB-19
[10] = test system: U-251
[11] = test system: OVCAR-4
[12] = test system: HT-29
[13] = test system: OVCAR-8
[14] = test system: SK-MEL-5
[15] = test system: M14
[16] = test system: SW-620
[17] = test system: ACHN
[18] = test system: HCT-116
[19] = test system: SK-MEL-28
[20] = test system: HCC 2998

Measured: GI50

C=CC(OC(C)=O)c1ccc(OC(C)=O)cc1 (stereo not given)
inactive: [1] 20 µM | [2] 8.47 µM | [3] 3.85 µM | [4] 2.88 µM | [5] 2.1 µM | [6] 2.69 µM | [7] 7.01 µM | [8] 4.92 µM | [9] 13.9 µM | [10] 2.3 µM | [11] 17.2 µM | [12] 4.8 µM | [13] 3.94 µM | [14] 15 µM | [15] 10.5 µM | [16] 2.21 µM | [17] 2.54 µM | [18] 7.05 µM | [19] 9.27 µM | [20] 7.01 µM

COc1ccc(N2NC(c3ccccc3)(c3ccccc3)C(C)C2=O)cc1 (stereo not given)
inactive: [1] 52.1 µM | [2] 48.5 µM | [3] 16 µM | [4] 44 µM | [5] 30.1 µM | [6] 96.6 µM | [7] 48.2 µM | [8] 88.5 µM | [9] > 100 µM | [10] 64.3 µM | [11] > 100 µM | [12] 40 µM | [13] 79.8 µM | [14] 58.9 µM | [15] 57.1 µM | [16] 58.9 µM | [17] 42.7 µM | [18] 43 µM | [19] > 100 µM | [20] > 100 µM

C[n+]1cccc2c(=O)c3ccccc3oc21
inactive: [1] > 100 µM | [2] > 100 µM | [3] > 100 µM | [4] > 100 µM | [5] 69.5 µM | [6] > 100 µM | [7] > 100 µM | [8] > 100 µM | [9] > 100 µM | [10] > 100 µM | [11] > 100 µM | [12] > 100 µM | [13] > 100 µM | [14] > 100 µM | [15] > 100 µM | [16] > 100 µM | [17] > 100 µM | [18] > 100 µM | [19] > 100 µM | [20] > 100 µM

CCOC(=O)CNC(=O)C(Cc1ccccc1)NC(=O)C(C)(C)NC(=O)OCc1ccccc1 (stereo not given) (Cbz-[Aib]-[ξF]-Gly-OEt)
inactive: [1] 33.1 µM | [2] > 100 µM | [3] 93.1 µM | [4] 49.4 µM | [5] > 100 µM | [6] 30.3 µM | [7] > 100 µM | [8] > 100 µM | [9] > 100 µM | [10] > 100 µM | [11] > 100 µM | [12] > 100 µM | [13] > 100 µM | [14] 64.1 µM | [15] 37.7 µM | [16] > 100 µM | [17] > 100 µM | [18] > 100 µM | [19] 17.9 µM | [20] 43.5 µM
